# From patent US7569726B2, “Indanone derivatives that inhibit prolyl hydroxylase” (Amgen Inc., priority 2007, dated 2009)
# Target: HIF PHD2 (Homo sapiens, UniProt Q9GZT9)
# Assay: PHD2 inhibition assay (TR-FRET, VCB-Eu detection of hydroxylated P564-HIF1α peptide)
# Type: biochemical
# Conditions: 2 nM PHD2, 100 nM P564-HIF1α peptide, 0.25 μM 2-oxoglutarate, 100 μM FeCl2, pH 6, TR-FRET
# Method: Inhibition of HIF PHD2 activity was quantified utilizing the TR-FRET technology. HIF PHD2 catalyzes a hydroxyl modification on the proline residue of the P564-HIF1α peptide substrate (Biotin-DLEMLAPYIPMDDDFQL (SEQ ID NO: 7)) resulting in recognition and binding of the europylated Von Hippel-Lindau protein (pVHL), elongin B and elongin C heterotrimeric (VCB-Eu) complex.
# The PHD2 inhibition assay was executed by addition of freshly dissolved FeCl2 to 178.57 μM (100 μM final concentration) in PHD2 Reaction Buffer containing 30 mM MES, pH 6, 10 mM NaCl, 0.25% Brij-35, 0.01% BSA, and 1% DMSO. 28 μL of the iron solution and 2 μL of inhibitor compounds serially diluted in 100% DMSO (5% DMSO final) were added to black polypropylene 96-well microtiter plates. To that, 10 μL of 10 nM PHD2 (2 nM final) was added to all wells of the plate except for the 8 wells of column 12 (LO control), and allowed to incubate at room temperature on the shaker for one hour. Column 6 was the HI control containing PHD2 enzyme and 5% DMSO vehicle, but no inhibitor compound. To initiate the PHD2 enzymatic reaction, 10 μL of a solution containing 500 nM P564-HIF1α peptide (100 nM final), 10 mM ascorbic acid (2 mM final), and 1.25 μM 2-oxoglutarate (α-ketoglutarate; 0.25 μM final) in PHD2 Reaction Buffer was added to all wells of the plate and allowed to incubate on the shaker at room temperature for one hour.
# The reaction was terminated by addition of 25 μL TR-FRET Buffer (50 mM TRIS-HCl, pH 9, 100 mM NaCl, 0.05% BSA, and 0.5% Tween-20) containing 150 mM succinate (product inhibitor; 50 mM final), 75 nM streptavidin-APC (25 nM final), and 7.5 nM VCB-Eu (2.5 nM final). The TR-FRET detection reagents were placed on a shaker for 1 hour to reach binding equilibrium before reading on the Discovery platform (PerkinElmer). Europium is excited at 315 nm and phosphoresces at 615 nm with a large Stoke's shift. APC, in turn, emits at 655 nm upon excitation at 615 nm. The TR-FRET signal is measured as the ratio of the APC 655 nm signal divided by the internal europium reference 615 nm emission signal.
# The POC (percentage of control) was determined by comparing the signal from hydroxylated peptide substrate in the enzyme reaction containing inhibitor compound with that from PHD2 enzyme with DMSO vehicle alone (HI control), and no enzyme (LO control). POC was calculated using the formula: % control (POC)=(cpd−average LO)/(average HI−average LO)*100. Data (consisting of POC and inhibitor concentration in μM) was fitted to a 4-parameter equation (y=A+((B−A)/(1+((x/C)^D))), where A is the minimum y (POC) value, B is the maximum y (POC), C is the x (cpd concentration) at the point of inflection and D is the slope factor) using a Levenburg-Marquardt non-linear regression algorithm.
# Chain of HIF PHD2 (Q9GZT9 whole entry): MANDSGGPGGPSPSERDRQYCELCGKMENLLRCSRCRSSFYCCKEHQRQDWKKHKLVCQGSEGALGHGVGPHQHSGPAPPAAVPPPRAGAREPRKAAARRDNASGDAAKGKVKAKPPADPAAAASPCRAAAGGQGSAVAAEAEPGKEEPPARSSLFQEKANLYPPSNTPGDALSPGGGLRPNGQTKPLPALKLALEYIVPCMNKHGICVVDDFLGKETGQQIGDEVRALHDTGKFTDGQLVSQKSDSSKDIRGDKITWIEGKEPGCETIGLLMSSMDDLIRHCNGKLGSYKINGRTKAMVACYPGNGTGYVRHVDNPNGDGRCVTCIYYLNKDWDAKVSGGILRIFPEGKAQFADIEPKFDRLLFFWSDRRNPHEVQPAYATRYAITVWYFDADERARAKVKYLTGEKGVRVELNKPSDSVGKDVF
row,SMILES,IC50 [nM]
1,"O=C(O)CNC(=O)C1=C(O)c2ccc(-c3ccccc3)cc2C1=O [Example 10, 2-(3-hydroxy-1-oxo-6-phenyl-1H-indene-2-carboxamido)acetic acid]",11.6
2,"O=C(O)CNC(=O)C1=C(O)c2c(Cl)ccc(Cl)c2C1=O [Example 8, 2-(4,7-dichloro-3-hydroxy-1-oxo-1H-indene-2-carboxamido)acetic acid]",47.2
3,"COc1ccc(-c2ccc3c(c2)C(O)=C(C(=O)NCC(=O)O)C3=O)cc1 [Example 12, 2-(3-hydroxy-5-(4-methoxyphenyl)-1-oxo-1H-indene-2-carboxamido)acetic acid]",22
4,"O=C(O)CNC(=O)C1=C(O)c2c(I)cccc2C1=O [Example 1, 2-(3-hydroxy-4-iodo-1-oxo-1H-indene-2-carboxamido)acetic acid]",22.5
5,"O=C(O)CNC(=O)C1=C(O)c2cc(F)ccc2C1=O [Example 6, 2-(6-fluoro-3-hydroxy-1-oxo-1H-indene-2-carboxamido)acetic acid]",50.1
6,"O=C(O)CNC(=O)C1=C(O)c2cc(Br)ccc2C1=O [Example 2, 2-(5-bromo-3-hydroxy-1-oxo-1H-indene-2-carboxamido)acetic acid]",20.6
7,"COc1ccccc1-c1cccc2c1C(=O)C(C(=O)NCC(=O)O)=C2O [Example 16, 2-(3-hydroxy-7-(2-methoxyphenyl)-1-oxo-1H-indene-2-carboxamido)acetic acid]",22.1
8,"O=C(O)CNC(=O)C1=C(O)c2cc(C(F)(F)F)ccc2C1=O [Example 3, 2-(3-hydroxy-1-oxo-5-(trifluoromethyl)-1H-indene-2-carboxamido)acetic acid]",13
9,O=C(O)CNC(=O)C1=C(O)c2c(F)cccc2C1=O [Example 7],25.5

# These reach a lower IC50. Values come first.
row,IC50 [nM],SMILES
1,3,"O=C(O)CNC(=O)C1=C(O)c2c(cccc2-c2cccc(Cl)c2)C1=O [Example 14, 2-(4-(3-chlorophenyl)-3-hydroxy-1-oxo-1H-indene-2-carboxamido)acetic acid]"
2,9.5,"O=C(O)CNC(=O)C1=C(O)c2c(Cl)cccc2C1=O [Example 4, 2-(4-chloro-3-hydroxy-1-oxo-1H-indene-2-carboxamido)acetic acid]"
3,2.8,"O=C(O)CNC(=O)C1=C(O)c2c(cccc2-c2ccccc2)C1=O [Example 9, 2-(3-hydroxy-1-oxo-7-phenyl-1H-indene-2-carboxamido)acetic acid]"
4,3.6,"O=C(O)CNC(=O)C1=C(O)c2ccc(-c3ccccc3Cl)cc2C1=O [Example 18, 2-(6-(2-chlorophenyl)-3-hydroxy-1-oxo-1H-indene-2-carboxamido)acetic acid]"
5,3.8,"O=C(O)CNC(=O)C1=C(O)c2c(cccc2-c2ccc(Cl)cc2)C1=O [Example 13, 2-(4-(4-chlorophenyl)-3-hydroxy-1-oxo-1H-indene-2-carboxamido)acetic acid]"
6,3.6,"COc1ccc(-c2cccc3c2C(O)=C(C(=O)NCC(=O)O)C3=O)cc1 [Example 11, 2-(3-hydroxy-4-(4-methoxyphenyl)-1-oxo-1H-indene-2-carboxamido)acetic acid]"
7,3,"COc1cccc(-c2cccc3c2C(=O)C(C(=O)NCC(=O)O)=C3O)c1 [Example 17, 2-(3-hydroxy-7-(3-methoxyphenyl)-1-oxo-1H-indene-2-carboxamido)acetic acid]"
8,5.5,"COc1cccc(-c2ccc3c(c2)C(=O)C(C(=O)NCC(=O)O)=C3O)c1 [Example 19, 2-(3-hydroxy-6-(3-methoxyphenyl)-1-oxo-1H-indene-2-carboxamido)acetic acid]"
9,8.5,"O=C(O)CNC(=O)C1=C(O)c2c(cccc2-c2ccccc2Cl)C1=O [Example 15, 2-(4-(2-chlorophenyl)-3-hydroxy-1-oxo-1H-indene-2-carboxamido)acetic acid]"
